# Experimental data published in PMC11676886 (Pharmaceutics, 2024).
# Legend:
# [1] = physchem; format: physicochemical
# Procedure: The mobile phase consisted of 50% acetonitrile and 50% purified water with a flow rate set to 1 mL/min and a column temperature set to 30 °C. The injection volume was 20 µL analyzed at a wavelength set to 230 nm for all analytical measurements.
# Samples were prepared by the shake-flask method in glass vials containing 2 mg drug compound and 1 mL dispersion medium consisting of either buffer solutions (50 mM acetate buffer, pH 4.0 or 50 mM citric buffer, pH 3.0) or stabilizer solutions containing 1%, 2%, or 3% polysorbate 20 or vitamin E TPGS dissolved in the buffer solutions. The samples were rotated for 24 h at 40 rpm on a Multi-Rotator (PTR-60, Grant-Bio, Grant Instruments, Cambridgeshire, UK) while stored at 40 °C and protected from light. Samples were prepared in triplicate (n = 3). After equilibration, the samples were filtered with a 0.22 µm hydrophobic polytetrafluoroethylene membrane (VWR International, LLC, Radnor, PA, USA) with sampling tools equilibrated to 40 °C while the clear supernatant was diluted to an appropriate concentration with the mobile phase (50:50 acetonitrile and purified water) and analyzed by the method described above.
# [2] = set-up: method as in doi:10.1016/j.jddst.2024.105605; settings: 4% (w/v) polysorbate 20; cited from earlier work
structure (smiles),measurement,setting,value
COc1ccc2c(c1)c(CC(=O)O)c(C)n2C(=O)c1ccc(Cl)cc1 [indomethacin],solubility at 24 h,"[1]; 40 °C, pH 3, aqueous buffer, thermodynamic from solid",2 µg/mL
same,solubility at 24 h,"[1]; 40 °C, pH 4, aqueous buffer, thermodynamic from solid",3 µg/mL
same,solubility at 24 h,[1]; pH 4,640 µg/mL
same,solubility,[2],approximately 0.70 mg/mL
